In ChEMBL document CHEMBL1201862, “PubChem BioAssay data set” (2004):
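Values below derive from 48-hour exposures of cells grown in 96-well plates, with endpoints linearly interpolated between the two concentrations bracketing the appropriate inhibition level. GI50 = concentration required for 50% inhibition of growth.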 Calls of active or inactive are those of the source. Rule as the data show it: active = GI50 up to about 1.1 µM and inactive = higher.

What was measured:
Assay in all cases: DTP human tumour cell line panel, 48 h
BT-549 = test system: BT-549
SN12C = test system: SN12C
HOP-62 = test system: HOP-62
ACHN = test system: ACHN
PC-3 = test system: PC-3
A498 = test system: A498
SNB-75 = test system: SNB-75
OVCAR-5 = test system: OVCAR-5
HCT-15 = test system: HCT-15
MDA-MB-231 = test system: MDA-MB-231
SF-295 = test system: SF-295
UACC-257 = test system: UACC-257
OVCAR-4 = test system: OVCAR-4
SF-539 = test system: SF-539
CAKI-1 = test system: CAKI-1
SR = test system: SR
OVCAR-8 = test system: OVCAR-8
SK-OV-3 = test system: SK-OV-3
MDA-MB-435 = test system: MDA-MB-435
Hs-578T = test system: Hs-578T

Structure (SMILES)	GI50 (BT-549)	GI50 (SN12C)	GI50 (HOP-62)	GI50 (ACHN)	GI50 (PC-3)	GI50 (A498)	GI50 (SNB-75)	GI50 (OVCAR-5)	GI50 (HCT-15) [µM]	GI50 (MDA-MB-231)	GI50 (SF-295)	GI50 (UACC-257)	GI50 (OVCAR-4)	GI50 (SF-539)	GI50 (CAKI-1)	GI50 (SR)	GI50 (OVCAR-8)	GI50 (SK-OV-3)	GI50 (MDA-MB-435)	GI50 (Hs-578T)
Cc1cc(C)c2c(c1)C/C(=C\c1cccc(C)c1C(=O)O)C2=O	42.9 µM (inactive)	42.6 µM (inactive)	55 µM (inactive)	87.7 µM (inactive)	39.5 µM (inactive)	63.1 µM (inactive)	55 µM (inactive)	99.5 µM (inactive)	49.5	36.1 µM (inactive)	78 µM (inactive)	33.3 µM (inactive)	75 µM (inactive)	37.2 µM (inactive)	> 100 µM (inactive)	> 100 µM (inactive)	52.7 µM (inactive)			
Cc1ccc2c(c1)[nH]c(=S)n2C=C(C(N)=O)C(N)=O	> 100 µM (inactive)	> 100 µM (inactive)	> 100 µM (inactive)	> 100 µM (inactive)		> 100 µM (inactive)	> 100 µM (inactive)	> 100 µM (inactive)	> 100	> 100 µM (inactive)	> 100 µM (inactive)	> 100 µM (inactive)	> 100 µM (inactive)	> 100 µM (inactive)	> 100 µM (inactive)		> 100 µM (inactive)	> 100 µM (inactive)	> 100 µM (inactive)	
CCCCCCCCCCCCCCCCCCNc1ccn(C2OC(CO)C(OP(=O)(O)OCC3CCC(n4ccc(N)nc4=O)O3)C2O)c(=O)n1 (configuration not stated)	30.8 µM (inactive)	> 100 µM (inactive)	> 100 µM (inactive)	> 100 µM (inactive)	17.4 µM (inactive)		62.2 µM (inactive)	57.7 µM (inactive)	40.3	> 100 µM (inactive)	> 100 µM (inactive)	> 100 µM (inactive)	93.8 µM (inactive)	32.7 µM (inactive)	> 100 µM (inactive)		> 100 µM (inactive)	> 100 µM (inactive)	> 100 µM (inactive)	> 100 µM (inactive)
COc1nc2c(c(=O)n1C)N=C(c1ccccc1)[C@H](C(CC(=O)c1ccccc1)c1ccccc1)C(c1ccccc1)N2 (some centres not stated)	> 100 µM (inactive)	44.7 µM (inactive)	> 100 µM (inactive)	50.4 µM (inactive)	42 µM (inactive)	> 100 µM (inactive)	10 µM (inactive)	> 100 µM (inactive)		16.2 µM (inactive)	70 µM (inactive)	> 100 µM (inactive)	20.1 µM (inactive)	> 100 µM (inactive)	27 µM (inactive)	78 µM (inactive)	54.5 µM (inactive)	> 100 µM (inactive)	> 100 µM (inactive)	
O=C(OCC(Cl)(Cl)Cl)N1CC[C@H](C2CCCCC2)C1	24.2 µM (inactive)	37.2 µM (inactive)	18.3 µM (inactive)	19.3 µM (inactive)	21.6 µM (inactive)		20.8 µM (inactive)	18.9 µM (inactive)	18.2	35.5 µM (inactive)	16.2 µM (inactive)	19.1 µM (inactive)	16.6 µM (inactive)		31.6 µM (inactive)	16.3 µM (inactive)		15.6 µM (inactive)		
O=[N+]([O-])/C(C(Cl)=C(Cl)Cl)=C1\NCCO1		> 100 µM (inactive)	> 100 µM (inactive)	> 100 µM (inactive)	> 100 µM (inactive)	> 100 µM (inactive)		> 100 µM (inactive)	> 100	> 100 µM (inactive)	> 100 µM (inactive)	> 100 µM (inactive)	35.1 µM (inactive)	> 100 µM (inactive)	> 100 µM (inactive)	> 100 µM (inactive)	> 100 µM (inactive)	> 100 µM (inactive)	> 100 µM (inactive)	47.5 µM (inactive)
CCOP(=O)(OCC)C1CC(O)CN1OC(=O)C(C)(C)C (configuration not stated)		> 100 µM (inactive)	> 100 µM (inactive)	> 100 µM (inactive)	> 100 µM (inactive)	> 100 µM (inactive)	> 100 µM (inactive)	> 100 µM (inactive)	> 100	> 100 µM (inactive)	> 100 µM (inactive)	> 100 µM (inactive)	> 100 µM (inactive)			> 100 µM (inactive)	> 100 µM (inactive)	> 100 µM (inactive)	> 100 µM (inactive)	> 100 µM (inactive)
COc1cc(CNC2=NCCC2)cc(OC)c1OC	> 100 µM (inactive)	> 100 µM (inactive)	> 100 µM (inactive)	> 100 µM (inactive)	> 100 µM (inactive)		> 100 µM (inactive)	> 100 µM (inactive)	> 100		> 100 µM (inactive)	> 100 µM (inactive)	> 100 µM (inactive)	> 100 µM (inactive)	> 100 µM (inactive)		> 100 µM (inactive)	> 100 µM (inactive)		
Cc1ccc(-c2c(C#N)c(-c3ccccc3)n(NS(=O)(=O)c3ccccc3)c(=O)c2C#N)cc1	64 µM (inactive)	> 100 µM (inactive)	64.7 µM (inactive)	> 100 µM (inactive)	48.1 µM (inactive)	> 100 µM (inactive)	67.6 µM (inactive)	> 100 µM (inactive)	60	> 100 µM (inactive)	60.7 µM (inactive)	> 100 µM (inactive)	> 100 µM (inactive)	87.1 µM (inactive)	> 100 µM (inactive)		> 100 µM (inactive)	> 100 µM (inactive)	99.8 µM (inactive)	
CC(C)(C)NC1C2CCC(C)(C1O)C2(C)C (configuration not stated)	> 100 µM (inactive)		> 100 µM (inactive)	8.63 µM (inactive)	> 100 µM (inactive)	2.35 µM (inactive)	0.021 µM (active)	> 100 µM (inactive)	> 100	> 100 µM (inactive)	> 100 µM (inactive)	> 100 µM (inactive)	> 100 µM (inactive)	> 100 µM (inactive)	> 100 µM (inactive)	> 100 µM (inactive)	> 100 µM (inactive)	> 100 µM (inactive)	> 100 µM (inactive)	
C/C=C/C(C/C=C(\C)CO[Si](C)(C)C(C)(C)C)O[Si](C)(C)C(C)(C)C (configuration not stated)		> 100 µM (inactive)	> 100 µM (inactive)	> 100 µM (inactive)	> 100 µM (inactive)	> 100 µM (inactive)	> 100 µM (inactive)	> 100 µM (inactive)	> 100	> 100 µM (inactive)	> 100 µM (inactive)	> 100 µM (inactive)	> 100 µM (inactive)	> 100 µM (inactive)	> 100 µM (inactive)	> 100 µM (inactive)	> 100 µM (inactive)	> 100 µM (inactive)	> 100 µM (inactive)	> 100 µM (inactive)
COc1cc2cc(C(=O)N3CC(CCl)c4c3cc(NC(=O)C(C)Nc3c([N+](=O)[O-])cc(C(=O)NCCN(C)C)cc3[N+](=O)[O-])c3ccccc43)[nH]c2c(OC)c1OC (configuration not stated)	0.187 µM (active)	0.105 µM (active)	0.0619 µM (active)	0.032 µM (active)	0.177 µM (active)	0.212 µM (active)	0.0272 µM (active)	0.0555 µM (active)	0.164	0.18 µM (active)	0.129 µM (active)	0.182 µM (active)	0.191 µM (active)	0.0331 µM (active)	0.22 µM (active)		0.132 µM (active)	0.21 µM (active)	0.16 µM (active)	
CS(=O)(=O)OCOS(C)(=O)=O	> 100 µM (inactive)	> 100 µM (inactive)	> 100 µM (inactive)	58.9 µM (inactive)	> 100 µM (inactive)	> 100 µM (inactive)		> 100 µM (inactive)	59.3	> 100 µM (inactive)	> 100 µM (inactive)	> 100 µM (inactive)	> 100 µM (inactive)	> 100 µM (inactive)	69 µM (inactive)	20.2 µM (inactive)	> 100 µM (inactive)	> 100 µM (inactive)	> 100 µM (inactive)	
Nc1ncnc2c1ncn2-c1ccc([N+](=O)[O-])cn1	> 100 µM (inactive)	> 100 µM (inactive)	> 100 µM (inactive)	> 100 µM (inactive)		> 100 µM (inactive)	41.4 µM (inactive)	> 100 µM (inactive)	> 100	> 100 µM (inactive)	> 100 µM (inactive)	> 100 µM (inactive)	> 100 µM (inactive)	> 100 µM (inactive)	> 100 µM (inactive)		> 100 µM (inactive)	> 100 µM (inactive)	> 100 µM (inactive)	61.9 µM (inactive)
COC(=O)C1CCC(=O)N1C(c1cc(OC)c(OC)c(OC)c1)c1cccc2ccccc12 (configuration not stated)		> 100 µM (inactive)	> 100 µM (inactive)	> 100 µM (inactive)	> 100 µM (inactive)	> 100 µM (inactive)	61 µM (inactive)	> 100 µM (inactive)	71.1	> 100 µM (inactive)	> 100 µM (inactive)	> 100 µM (inactive)		> 100 µM (inactive)		32.7 µM (inactive)	> 100 µM (inactive)	25.4 µM (inactive)	63.2 µM (inactive)	6.44 µM (inactive)
ClCCCC1COc2ccccc2O1 (configuration not stated)	23.1 µM (inactive)	> 100 µM (inactive)	> 100 µM (inactive)	> 100 µM (inactive)	> 100 µM (inactive)		> 100 µM (inactive)	55.8 µM (inactive)	> 100		> 100 µM (inactive)	> 100 µM (inactive)	> 100 µM (inactive)	> 100 µM (inactive)	> 100 µM (inactive)	> 100 µM (inactive)	> 100 µM (inactive)	8.81 µM (inactive)		
